Data from US20230201151A1, “FORMULATIONS AND METHODS FOR TREATING ACUTE RESPIRATORY DISTRESS SYNDROME, ASTHMA, OR ALLERGIC RHINITIS” (UNIVERSITY OF FLORIDA RESEARCH FOUNDATION, INC., priority 2020, published 2023).

What was measured:
Format in all cases: cell-based, human
ENaC [1] = assay: ENaC current in HBEC after increasing cytokine concentrations for 7 days (FIGS. 9-11); details: for ENaC activity with increasing cytokine concentration: 7 days (FIGS. 9, 11)
Experimental: FIG. 9: ENaC Activity in Human Bronchial Epithelial Cells after Exposure to Increasing Concentrations of TNF-α for 7 Days. Human bronchial epithelial cells (HBEC) were treated with different concentrations of TNF-α (0.00005, 0.0005, 0.005, 0.05, 0.5, 5, 50 or 500 ng/mL media) for 7 days.
FIG. 10: ENaC Activity in Human Bronchial Epithelial Cells after Exposure to Increasing Concentrations of IFN-γ for 7 Days. HBEC were treated with IFN-γ (0.00005, 0.0005, 0.005, 0.05, 0.5, 5, 50 or 500 ng/mL media) for 7 days.
FIG. 11: ENaC Activity in Human Bronchial Epithelial Cells after Exposure to Increasing Concentrations of TGF-β1 for 7 Days. HBEC were treated with TGF-β1 (0.00005, 0.0005, 0.005, 0.05, 0.5, 5, 50 or 500 ng/mL media) for 7 days.
In some embodiments, HBECs were treated with different concentrations of TNF-α ranging from 0.00005 ng/mL to 500 ng/mL TNF-α (e.g., 0.00005, 0.0005, 0.005, 0.05, 0.5, 5, 50 or 500 ng/mL TNF-α in media) for 7 days.

ENaC [2] = assay: Benzamil-sensitive Isc (ENaC activity) in differentiated HBECs, Ussing chamber; details: for cytokine concentration that decreased benzamil-sensitive Isc: 7 days incubation
Experimental: (§1) High individual variation in benzamil-sensitive current and TEER in HBECs. In an Ussing chamber-based experimental design, basal short-circuit current (Isc) and transepithelial electrical resistance (TEER) were recorded in differentiated HBECs from two lung donors that were grown on snapwells at an air-liquid interface for 28 to 35 days. Benzamil, a potent ENaC blocker was used to determine ENaC activity by calculating benzamil-sensitive Isc from changes in Isc that occur 15 minutes after adding 6 μM benzamil to the apical side of cells. […] Therefore, normalized data were used for all subsequent experiments for statistical analyses relating to FIGS. 13-18.
(§2) Basal treatment with cytokines [IL-13 (Abcam), IL-4 (PeproTech), TNF-α, IFN-γ and TGF-β1 (R&D Systems)] diluted in ALI medium started as early as day 14 post differentiation. Individual cytokines or cytokine cocktails were added to the culture medium at the desired concentrations and cells were incubated with the cytokines for a maximum of 16 days. ALI medium containing cytokines was changed every two days. Age-matched HBECs were assigned to the following treatment groups:
(§3) II Time-dependent studies: These studies were done using a concentration that ensured maximum inhibition of benzamil-sensitive Isc and TEER. HBECs were treated with respective cytokines for 2, 4, 6, 8, 10, 12, 14, or 16 days. IFN-γ, TNF-α or TGF-β1 at 1 ng/mL, IL-13 at 20 ng/mL and IL-4 at 2 ng/mL were used.
(§4) III Cytokine cocktails: were prepared using IFN-γ and TNF-α at 0.05, 0.5, 2.5, 5 and 10 ng/mL while TNF-α, IFN-γ and TGF-β1 at 1 ng/mL for each of the cytokines was added to the culture media for 7 days.
(§5) Ussing chamber experiments: Snapwells with differentiated HBECs that were incubated with cytokines or age-matched HBECs without cytokine exposure were mounted in Ussing chambers (Physiologic Instruments), and cells were either bathed in isotonic ringer solution containing 113.8 mM Na^+, 93.6 mM Cl^−, 25 mM HCO3^−, 5.2 mM K^+, 2.4 mM HPO4^−, 0.4 mM H2PO4^−, 1.2 mM Mg^2+, 1.2 mM Ca^2+, and 75 mM mannitol, or in AA-EC01. Glucose (5 mM) was added to the basal side, and chambers were bubbled with 95% O2 and 5% CO2 at 37° C. AA-EC01 contained 8 mM lysine, 8 mM tryptophan, 8 mM arginine, 8 mM glutamine, and 1.2 mM tyrosine, and AANC contained 8 mM leucine, 8 mM cysteine, 8 mM isoleucine, 8 mM aspartic acid and 8 mM glutamate (Ajinomoto), both diluted in an electrolyte solution containing 113.8 mM Na^t, 93.6 mM Cl^−, 25 mM HCO3^−, 5.2 mM K^+, 2.4 mM HPO4^−, 0.4 mM H2PO4^−, 1.2 mM Mg′, 1.2 mM Ca^2+ and 40 mM mannitol at pH 7.4 and 300 mOsm. Cell cultures were allowed to equilibrate in the Ussing chambers for 30 minutes while continuously voltage clamped to 0 mV. Basal short circuit current (Isc) and transepithelial electrical resistance (TEER) were recorded at 30-second intervals, and benzamil-sensitive Isc was calculated from the difference of basal Isc recorded after 30 minutes and Isc measured at 15 minutes after adding 6 μM of benzamil (ThermoFisher) to the apical side.
(§6) Statistical analysis: Results are presented as mean±standard error of mean (SEM). Analyses were performed with OriginPro 2018 software package. For each treatment group, values were tested for normal distribution using the Shapiro-Wilk normality test. […] The values were normalized to controls within the group, and data were pooled for comparison between groups. Kruskal-Wallis test was used for comparing the overall effect of ringer, AA-EC01 and AANC on benzamil-sensitive Isc and TEER, and Mann Whitney U test was used for pairwise comparison within the group and for comparison between basal values for each cytokine at zero ng/mL or day zero with each concentration and time period studied. P<0.05 was considered significant, and NS indicates not significant.

HBECs = assay: TEER (epithelial barrier function) in differentiated HBECs, Ussing chamber; details: for TEER, normalized to control: day 16; for cytokine concentration that increased TEER / epithelial resistance: 7 days incubation
Experimental: as §1, §2, §3, §4, §5, §6

| Substance | IFN-γ concentration at which ENaC current decreased relative to baseline (ENaC [1]; 7 days (FIG. 10)) | IFN-γ concentration with significant decrease in ENaC activity (ENaC [1]; 7 days (FIG. 10)) | benzamil-sensitive Isc, normalized to control (ENaC [2]; 1 ng/mL cytokine, day 16) | cytokine concentration that decreased benzamil-sensitive Isc (ENaC [2]) | benzamil-sensitive Isc, of baseline values (ENaC [2]; IFN-γ 5×10^−4 ng/mL, 7 days, normalized to control) | TEER, normalized to control (HBECs; 1 ng/mL cytokine) | cytokine concentration that increased TEER / epithelial resistance (HBECs) | benzamil-sensitive Isc, normalized to control (ENaC [2]; 2 ng/mL IL-4, day 4) | benzamil-sensitive Isc, normalized to control (maximum reduction) (ENaC [2]; 2 ng/mL IL-4, day 10) | TEER, normalized to control (maximum inhibition) (HBECs; 2 ng/mL IL-4, day 10) | ENaC activity with increasing cytokine concentration (ENaC [1]) | benzamil-sensitive Isc, normalized to control (ENaC [2]; 1 ng/mL cytokine, day 4) | benzamil-sensitive Isc, normalized to control (ENaC [2]; TGF-β1 0.5 ng/mL, 7 days) | benzamil-sensitive Isc, normalized to control (ENaC [2]; TGF-β1 50 ng/mL, 7 days) | TEER over time (HBECs; 1 ng/mL cytokine, up to 16 days) | benzamil-sensitive Isc, normalized to control (plateau of reduction) (ENaC [2]; TNF-α around 10 ng/mL, 7 days) |
| --- | --- | --- | --- | --- | --- | --- | --- | --- | --- | --- | --- | --- | --- | --- | --- | --- |
| IFN-γ: type II IFN family cytokine (R&D Systems) added to HBEC culture medium | > 0.05 ng/mL media | > 5 ng | 43.7±7.0% | > 20 ng/mL | 161.62±9.7% | 142.5±12.3% | ≥ 0.5 ng/mL | – | – | – | – | – | – | – | – | – |
| IL-4: Th2 cytokine (PeproTech) added to HBEC culture medium | – | – | – | – | – | – | – | 59.9±9.4% | 8.6±5% | 37.5±2% | – | – | – | – | – | – |
| TGF-β1: Treg cytokine (R&D Systems) added to HBEC culture medium | – | – | 20.3±5.8% | ≥ 0.5 ng/mL | – | – | ≥ 5 ng/mL | – | – | – | concentration-dependent decrease | 64.4±8.3% | 70.4±2.5% | 1.5±0.3% | remained unaffected | – |
| TNF-α | – | – | 39.2±2.4% | ≥ 0.05 ng/mL | – | 132.6±9.0% | – | – | – | – | concentration-dependent decrease | 81.2±5.4% | – | – | – | 17.4±3.6% |
